Experimental data as given in ChEMBL document CHEMBL1157672, “Detection of multiple network-based allosteric interactions between peptides and arrays of DNA binding sites” (Bioorg Med Chem, 2010).
Values belong to the molecule of their own block, whether it stands above or below them. Active and inactive are the calls of the source. The calls are words filed in the database; no cut-off is given here.

Columns and labels:
Type in all cases: nucleic-acid assay
Nucleic Acid [1] = test: Binding affinity to 5'-AGAAAATAC-3' sequence of Escherichia coli 158-mer duplex pBR322 fragment at 10 to 2000 nM after 60 mins by DNase I footprinting
Nucleic Acid [2] = test: Binding affinity to 5'-AATAC-3' sequence of Escherichia coli 158-mer duplex pBR322 fragment at 10 to 2000 nM after 60 mins by DNase I footprinting
Nucleic Acid [3] = test: Binding affinity to 5'-TTTCTCCT-3' sequence of Escherichia coli 135-mer duplex pBR322 fragment at 50 to 2000 nM after 60 mins by DNase I footprinting
Nucleic Acid [4] = test: Binding affinity to 5'-AGAAAATAC-3' sequence of Escherichia coli 158-mer duplex pBR322 fragment after 60 mins by DNase I footprinting
Nucleic Acid [5] = test: Binding affinity to 5'-AATAC-3' sequence of Escherichia coli 158-mer duplex pBR322 fragment after 60 mins by DNase I footprinting
Nucleic Acid [6] = test: Binding affinity to 5'-TTTCTCCT-3' sequence of Escherichia coli 135-mer duplex pBR322 fragment after 60 mins by DNase I footprinting
Nucleic Acid [7] = test: Binding affinity to 5'-AAAAT-3' sequence of Escherichia coli 81-mer duplex pBR322 fragment after 60 mins by DNase I footprinting
Nucleic Acid [8] = test: Binding affinity to 5'-TTTCT-3' sequence of Escherichia coli 81-mer duplex pBR322 fragment after 60 mins by DNase I footprinting
Nucleic Acid [9] = test: Binding affinity to d(AAAA)-d(TTTT) sequence of Escherichia coli 158-mer duplex pBR322 fragment assessed as allosteric interaction after 60 mins by DNase I footprinting
Nucleic Acid [10] = test: Binding affinity to d(AAA)-d(TTT) sequence of Escherichia coli 135-mer duplex pBR322 fragment assessed as allosteric interaction after 60 mins by DNase I footprinting
Nucleic Acid [11] = test: Binding affinity to 11-mer duplex 3A-3T DNA at 0.2 to 7 uM after 60 mins by circular dichroism spectroscopy
Nucleic Acid [12] = test: Binding affinity to 11-mer duplex 4A-4T DNA at 0.2 to 7 uM after 60 mins by circular dichroism spectroscopy
Nucleic Acid [13] = test: Binding affinity to 11-mer duplex 4A-4T DNA minor groove at peptide to duplex ratio of 2:1 after 60 mins by circular dichroism spectroscopy
Nucleic Acid [14] = test: Binding affinity to 11-mer duplex 3A-3T DNA minor groove at peptide to duplex ratio of 2:1 after 60 mins by circular dichroism spectroscopy
Nucleic Acid [15] = test: Binding affinity to 5'-AATACCG-3' sequence of Escherichia coli 158-mer duplex pBR322 fragment at 1 to 3000 nM after 60 mins by DNase I footprinting
Nucleic Acid [16] = test: Binding affinity to 5'-AGAAAATACCG-3' sequence of Escherichia coli 158-mer duplex pBR322 fragment at 1 to 3000 nM after 60 mins by DNase I footprinting
Nucleic Acid [17] = test: Binding affinity to 5'-TTT-3' sequence of Escherichia coli 135-mer duplex pBR322 fragment at 12 nM after 60 mins by DNase I footprinting
Nucleic Acid [18] = test: Binding affinity to 5'-TTTCTCC-3' sequence of Escherichia coli 135-mer duplex pBR322 fragment at 1 to 3000 nM after 60 mins by DNase I footprinting
Nucleic Acid [19] = test: Binding affinity to 5'-AATACCG-3' sequence of Escherichia coli 158-mer duplex pBR322 fragment after 60 mins by DNase I footprinting
Nucleic Acid [20] = test: Binding affinity to 5'-AGAAAATACCG-3' sequence of Escherichia coli 158-mer duplex pBR322 fragment after 60 mins by DNase I footprinting
Nucleic Acid [21] = test: Binding affinity to 5'-TTT-3' sequence of Escherichia coli 135-mer duplex pBR322 fragment after 60 mins by DNase I footprinting
Nucleic Acid [22] = test: Binding affinity to 5'-TTTCTCC-3' sequence of Escherichia coli 135-mer duplex pBR322 fragment after 60 mins by DNase I footprinting
Nucleic Acid [23] = test: Binding affinity to 5'-GAAAATA-3' sequence of Escherichia coli 158-mer duplex pBR322 fragment at 1 to 3000 nM after 60 mins by DNase I footprinting
Nucleic Acid [24] = test: Binding affinity to 5'-AATACC-3' sequence of Escherichia coli 158-mer duplex pBR322 fragment at 1 to 3000 nM after 60 mins by DNase I footprinting
Nucleic Acid [25] = test: Binding affinity to 5'-TTTTCTCCT-3' sequence of Escherichia coli 135-mer duplex pBR322 fragment at 1 to 3000 nM after 60 mins by DNase I footprinting
Nucleic Acid [26] = test: Binding affinity to 5'-TT-3' sequence of Escherichia coli 135-mer duplex pBR322 fragment at 1 to 3000 nM after 60 mins by DNase I footprinting
Nucleic Acid [27] = test: Binding affinity to 5'-GAAAATA-3' sequence of Escherichia coli 158-mer duplex pBR322 fragment after 60 mins by DNase I footprinting
Nucleic Acid [28] = test: Binding affinity to 5'-AATACC-3' sequence of Escherichia coli 158-mer duplex pBR322 fragment after 60 mins by DNase I footprinting
Nucleic Acid [29] = test: Binding affinity to 5'-TTTTCTCCT-3' sequence of Escherichia coli 135-mer duplex pBR322 fragment after 60 mins by DNase I footprinting
Nucleic Acid [30] = test: Binding affinity to 5'-TT-3' sequence of Escherichia coli 135-mer duplex pBR322 fragment after 60 mins by DNase I footprinting
Nucleic Acid [31] = test: Binding affinity to 5'-TTTTCTC-3' sequence of Escherichia coli 81-mer duplex pBR322 fragment after 60 mins by DNase I footprinting
Nucleic Acid [32] = test: Binding affinity to 11-mer duplex 4A-4T DNA after 60 mins by circular dichroism spectroscopy
Nucleic Acid [33] = test: Binding affinity to 11-mer duplex 4A-4T DNA at 0.2 uM after 60 mins by circular dichroism spectroscopy
Nucleic Acid [34] = test: Binding affinity to 5'-TT-3' sequence of Escherichia coli 135-mer duplex pBR322 fragment at 50 to 2000 nM after 60 mins by DNase I footprinting

Activity (Nucleic Acid [1]): Active
Activity (Nucleic Acid [2]): Active
Activity (Nucleic Acid [3]): Active
Ka (Nucleic Acid [4]): 3.4 ×10⁶ /M
Ka (Nucleic Acid [5]): 2.5 ×10⁶ /M
Ka (Nucleic Acid [6]): 3.4 ×10⁶ /M
Ka (Nucleic Acid [7]): 1.4 ×10⁶ /M
Ka (Nucleic Acid [8]): 2.5 ×10⁶ /M
Activity (Nucleic Acid [9]): Active
Activity (Nucleic Acid [10]): Active
Activity (Nucleic Acid [11]): Active
Activity (Nucleic Acid [12]): Active
Activity (Nucleic Acid [13]): Active
Activity (Nucleic Acid [14]): Active
Structure (SMILES): Cn1cc(NC(=O)c2cc(NC(=O)[C@@H](CCCCN)NC(=O)[C@H](CCCNC(=N)N)NC(=O)[C@@H]3C[C@@H](O)CN3C(=O)[C@@H](N)Cc3cnc[nH]3)cn2C)cc1C(=O)Nc1cc(C(=O)Nc2cc(C(=O)N[C@@H](Cc3cnc[nH]3)C(=O)N3C[C@H](O)C[C@H]3C(=O)N[C@@H](CCCNC(=N)N)C(=O)N[C@@H](CCCCN)C(N)=O)n(C)c2)n(C)c1

Activity (Nucleic Acid [15]): Active
Activity (Nucleic Acid [16]): Active
Activity (Nucleic Acid [17]): Active
Activity (Nucleic Acid [18]): Active
Ka (Nucleic Acid [19]): 6.7 ×10⁷ /M
Ka (Nucleic Acid [20]): 3.2 ×10⁶ /M
Ka (Nucleic Acid [21]): 3.7 ×10⁶ /M
Ka (Nucleic Acid [22]): 3.8 ×10⁶ /M
Activity (Nucleic Acid [9]): Active
Activity (Nucleic Acid [10]): Active
Structure (SMILES): Cn1cc(NC(=O)c2cc(NC(=O)[C@@H](CCCCN)NC(=O)[C@H](CCCNC(=N)N)NC(=O)[C@@H]3CCCN3C(=O)[C@@H](N)Cc3cnc[nH]3)cn2C)cc1C(=O)Nc1cc(C(=O)Nc2cc(C(=O)N[C@@H](Cc3cnc[nH]3)C(=O)N3CCC[C@H]3C(=O)N[C@@H](CCCNC(=N)N)C(=O)N[C@@H](CCCCN)C(N)=O)n(C)c2)n(C)c1

Activity (Nucleic Acid [23]): Active
Activity (Nucleic Acid [24]): Active
Activity (Nucleic Acid [25]): Active
Activity (Nucleic Acid [26]): Active
Ka (Nucleic Acid [27]): 3.8 ×10⁶ /M
Ka (Nucleic Acid [28]): 2.5 ×10⁶ /M
Ka (Nucleic Acid [29]): 2.2 ×10⁶ /M
Ka (Nucleic Acid [30]): 2.7 ×10⁶ /M
Ka (Nucleic Acid [7]): 2.1 ×10⁶ /M
Ka (Nucleic Acid [31]): 1.9 ×10⁶ /M
Activity (Nucleic Acid [9]): Active
Activity (Nucleic Acid [10]): Active
Activity (Nucleic Acid [32]): Dose-dependent effect
Activity (Nucleic Acid [33]): Active
Activity (Nucleic Acid [11]): Active
Activity (Nucleic Acid [13]): Active
Activity (Nucleic Acid [14]): Active
Activity (Nucleic Acid [34]): inactive
Structure (SMILES): Cn1cc(NC(=O)c2cc(NC(=O)[C@@H](CCCCN)NC(=O)[C@H](CCCNC(=N)N)NC(=O)[C@@H]3C[C@@H](O)CN3C(=O)[C@@H](N)Cc3cnc[nH]3)cn2C)cc1C(=O)Nc1cc(C(=O)N[C@@H](CCCCN)C(=O)N[C@@H](CCCNC(=N)N)C(N)=O)n(C)c1
